Our source for the IC50 and Kd values is patent US20240190849A1, “AMINOPYRIMIDINE COMPOUNDS AND METHODS OF THEIR USE” (TYRA BIOSCIENCES, INC., priority 2021, published 2024).

Assay [1] has as its system RT112/84 (Bladder Cancer), FGFR3-TACC3 fusion. Nature of the assay: Cancer cell viability assay (Cell Titer-Glo), RT112/84. The assay is classed as cell-based. To be noted: Homo sapiens, RT112/84 cells, 72 hours. The essentials: (§1)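 Cells seeded at 10,000/well in RPMI1640 with 10% FBS, then exposed 72 h at 37° C. to a 9-point 10-fold dilution series from 30 μM, in triplicate. Viability read as ATP luminescence (CellTiter-Glo 2.0) as percent of DMSO control; IC50 from 4-parameter sigmoidal fit.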
Background: In ATP-based viability assays light output follows the ATP content of the culture.

The target in the next assay is T1, FGFR3 (Homo sapiens, UniProt P22607).
T1 construct: made in house; host or cells: E. coli derived from BL21, infected with T7 phage
T1 sequence (P22607 23-806): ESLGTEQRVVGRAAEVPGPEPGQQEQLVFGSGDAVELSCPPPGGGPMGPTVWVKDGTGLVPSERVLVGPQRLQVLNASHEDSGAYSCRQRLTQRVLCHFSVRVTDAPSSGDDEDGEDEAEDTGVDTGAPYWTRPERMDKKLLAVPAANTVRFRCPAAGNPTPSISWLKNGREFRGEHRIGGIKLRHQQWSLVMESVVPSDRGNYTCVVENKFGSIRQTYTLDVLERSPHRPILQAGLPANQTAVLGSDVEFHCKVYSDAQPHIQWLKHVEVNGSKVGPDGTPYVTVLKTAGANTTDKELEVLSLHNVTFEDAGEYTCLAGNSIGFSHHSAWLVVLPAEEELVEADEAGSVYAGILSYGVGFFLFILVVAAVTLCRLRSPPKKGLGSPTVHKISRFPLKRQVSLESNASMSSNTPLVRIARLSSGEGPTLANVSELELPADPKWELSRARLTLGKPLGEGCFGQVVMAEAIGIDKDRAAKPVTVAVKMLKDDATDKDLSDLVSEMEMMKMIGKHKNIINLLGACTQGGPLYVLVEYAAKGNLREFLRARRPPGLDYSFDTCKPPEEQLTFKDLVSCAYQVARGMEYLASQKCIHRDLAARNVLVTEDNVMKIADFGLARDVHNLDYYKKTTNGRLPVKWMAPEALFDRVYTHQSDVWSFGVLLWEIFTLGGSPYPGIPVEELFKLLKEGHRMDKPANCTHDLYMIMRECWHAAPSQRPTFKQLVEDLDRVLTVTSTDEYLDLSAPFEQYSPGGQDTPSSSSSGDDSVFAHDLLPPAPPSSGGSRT
Put plainly: Kinase binding assay (kinase-tagged T7 phage, affinity beads, qPCR readout), FGFR3. The conditions noted are these: FGFR binding data. The essentials:
(§2)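 Dissociation constants were measured by bead-capture competition at 0.9% DMSO, room temperature, 1 hour. qPCR of eluted kinase supplied the signal.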

In assay [2] the test system is KG-1 (Acute Myeloid Leukemia), FGFR1OP2-FGFR1 fusion. Nature of the assay: Cancer cell viability assay (Cell Titer-Glo), KG-1. Format: cell-based. The conditions noted are these: Homo sapiens, KG-1 cells, 72 hours. In a few lines:
as §1

The subject of assay [3] is SNU-16 (Gastric Carcinoma), FGFR2 amplification. Put plainly: Cancer cell viability assay (Cell Titer-Glo), SNU-16. Format: cell-based. The conditions noted are these: Homo sapiens, SNU-16 cells, 72 hours, read-out: SNU16 FGFR2 (IC50 nM). The essentials: as §1
Assay [4] has as its system UM-UC-14 (Bladder Cancer), FGFR3(S249C). Nature of the assay: Cancer cell viability assay (Cell Titer-Glo), UM-UC-14. Format: cell-based. The conditions noted are these: UMUC14, UM-UC-14 cells, 72 hours. In a few lines: as §1
In a further assay the target is T2, FGFR3 (V555M) (Homo sapiens, UniProt P22607, V555M).
T2 construct: made in house; host or cells: E. coli derived from BL21, infected with T7 phage
T2 sequence (P22607 23-806 V555M): as the sequence (P22607 23-806) above, with V533M counted along it
Put plainly: Kinase binding assay (kinase-tagged T7 phage, affinity beads, qPCR readout), FGFR3 (V555M). To be noted: FGFR binding data. In a few lines:
as §2
On the technique in general: Quantitative PCR measures a nucleic acid by following its amplification.

A further assay addresses T3, FGFR1 (Homo sapiens, UniProt P11362).
T3 construct: made in house; host or cells: E. coli derived from BL21, infected with T7 phage
Put plainly: Kinase binding assay (kinase-tagged T7 phage, affinity beads, qPCR readout), FGFR1. To be noted: FGFR binding data. In a few lines:
as §2

A further assay addresses T4, FGFR2 (Homo sapiens, UniProt P21802).
T4 construct: made in house; host or cells: E. coli derived from BL21, infected with T7 phage
Nature of the assay: Kinase binding assay (kinase-tagged T7 phage, affinity beads, qPCR readout), FGFR2. To be noted: FGFR binding data. The essentials:
as §2

T3 sequence (P11362 22-822): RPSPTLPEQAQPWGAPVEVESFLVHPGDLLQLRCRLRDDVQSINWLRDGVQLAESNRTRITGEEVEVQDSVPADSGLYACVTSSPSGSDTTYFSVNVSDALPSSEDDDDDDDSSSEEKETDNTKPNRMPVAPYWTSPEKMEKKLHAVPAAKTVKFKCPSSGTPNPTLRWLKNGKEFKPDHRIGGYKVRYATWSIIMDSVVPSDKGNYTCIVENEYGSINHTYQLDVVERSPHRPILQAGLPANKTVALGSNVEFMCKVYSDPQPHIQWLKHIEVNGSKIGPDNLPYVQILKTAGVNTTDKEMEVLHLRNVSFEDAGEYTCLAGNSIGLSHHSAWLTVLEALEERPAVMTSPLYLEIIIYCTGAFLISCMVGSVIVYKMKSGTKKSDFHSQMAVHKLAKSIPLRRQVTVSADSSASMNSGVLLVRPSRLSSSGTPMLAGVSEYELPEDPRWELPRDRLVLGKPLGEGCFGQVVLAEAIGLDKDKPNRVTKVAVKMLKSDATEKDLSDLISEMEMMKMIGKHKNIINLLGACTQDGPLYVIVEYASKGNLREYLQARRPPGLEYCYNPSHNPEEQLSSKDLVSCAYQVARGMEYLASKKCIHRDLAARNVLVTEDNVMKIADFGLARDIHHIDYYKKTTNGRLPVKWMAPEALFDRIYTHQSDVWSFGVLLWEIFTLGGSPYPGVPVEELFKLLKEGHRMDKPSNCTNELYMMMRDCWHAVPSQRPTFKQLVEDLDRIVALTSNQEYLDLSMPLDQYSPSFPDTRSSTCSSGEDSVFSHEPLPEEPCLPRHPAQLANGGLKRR
T4 sequence (P21802 22-821): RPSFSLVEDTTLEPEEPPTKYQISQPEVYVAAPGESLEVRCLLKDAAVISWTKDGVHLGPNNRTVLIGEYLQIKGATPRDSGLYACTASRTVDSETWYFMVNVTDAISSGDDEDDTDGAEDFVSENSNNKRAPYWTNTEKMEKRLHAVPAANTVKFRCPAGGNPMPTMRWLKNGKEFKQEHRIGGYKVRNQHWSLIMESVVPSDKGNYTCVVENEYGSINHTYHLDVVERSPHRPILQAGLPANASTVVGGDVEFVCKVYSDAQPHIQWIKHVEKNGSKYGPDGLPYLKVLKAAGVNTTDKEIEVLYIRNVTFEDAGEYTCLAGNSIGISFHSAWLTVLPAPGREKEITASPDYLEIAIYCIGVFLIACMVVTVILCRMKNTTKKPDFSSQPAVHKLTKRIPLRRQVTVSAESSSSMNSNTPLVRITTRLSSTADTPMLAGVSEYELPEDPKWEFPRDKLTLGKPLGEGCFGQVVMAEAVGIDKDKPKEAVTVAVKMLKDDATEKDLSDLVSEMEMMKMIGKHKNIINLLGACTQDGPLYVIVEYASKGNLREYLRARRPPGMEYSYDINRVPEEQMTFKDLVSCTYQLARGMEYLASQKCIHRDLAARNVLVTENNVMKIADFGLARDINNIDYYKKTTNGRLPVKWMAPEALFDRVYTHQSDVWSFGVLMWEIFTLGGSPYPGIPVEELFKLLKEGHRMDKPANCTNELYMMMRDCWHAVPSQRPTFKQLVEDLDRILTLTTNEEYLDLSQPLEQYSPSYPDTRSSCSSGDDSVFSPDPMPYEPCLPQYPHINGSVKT

As for `C=CC(=O)Nc1ccc2c(c1)c(C)cn2-c1nc(Nc2cnn(C)c2)ncc1F` [Example 61, N-[1-[5-fluoro-2-[(1-methylpyrazol-4-yl)amino]pyrimidin-4-yl]-3-methyl-indol-5-yl]prop-2-enamide], the IC50 in assay [1], in assay [2], in assay [3] and in assay [4] was 0.1 to 100 nM each time. The equilibrium dissociation constant (Kd) at FGFR3, on FGFR3 (V555M), at FGFR1 and on FGFR2 was 0.1 to 100 nM in each case.

Turning to `C=CC(=O)Nc1ccc2c(c1)c(C)cn2-c1nc(Nc2ccnn2C)ncc1C` [Example 49, N-[3-methyl-1-[5-methyl-2-[(2-methylpyrazol-3-yl)amino]-pyrimidin-4-yl]indol-5-yl]prop-2-enamide], the IC50 in assay [1], in assay [2], in assay [3] and in assay [4] was 0.1 to 100 nM throughout. The Kd at FGFR3 is 0.1 to 100 nM; at FGFR3 (V555M), 0.1 to 100 nM; at FGFR1 it was 100 to 250 nM; on FGFR2, 0.1 to 100 nM.

In the case of `C=CC(=O)Nc1ccc2c(c1)c(C)cn2-c1nc(Nc2cc(C)nn2C)ncc1C` [Example 64, N-[1-[2-[(2,5-dimethylpyrazol-3-yl)amino]-5-methyl-pyrimidin-4-yl]-3-methyl-indol-5-yl]prop-2-enamide], the IC50 in assay [1], in assay [2], in assay [3] and in assay [4] was 0.1 to 100 nM throughout. Besides, the Kd on FGFR3, at FGFR3 (V555M), at FGFR1 and at FGFR2 was 0.1 to 100 nM in each case.

Broadly, the IC50 is the concentration that inhibits the measured activity by half. What is called Kd is the constant that tells how readily two partners part at equilibrium. The low end stands for tighter binding, the high end for weaker binding.
